{"source": "patent US12005044B1", "about": "“Treatment of autism spectrum disorders with ergothioneine, selenoneine, or combinations thereof” (Autism Therapeutics Inc., priority 2022, dated 2024)", "key": {"[1]": {"conditions": "EFSA Panel; cited from earlier work"}, "ASD individuals": {"tested_on": "ASD individuals", "experiment": "CARS-2 scoring of ASD individuals before and after three months of ET dietary supplement", "format": "in vivo, human", "parameters": "key to CARS-2 Total scores, After treatment / average of total CARS-2 score after treatment: sum of 15 items, 15 (normal) to 60; ≥30 = ASD", "text": "Examples are described below for using ET to treat ASD-affected individuals. Each of the four individuals identified in the examples has various severity of ASD. The examples set forth herein are directed to the use of ET dietary supplement for a period of three months.\nThe examples below therefore adopted the CARS-2 system to evaluate ET treatment effects in four ASD individuals.\nTo obtain a CARS-2 score, each individual is rated on a scale of 1 (normal) to 4 (severely abnormal) with respect to each of the 15 criteria (“relationship to others”, “imitation”, “emotional response”, “body use”, “object use”, “adaptation to change”, “visual response”, “listening response”, “taste-smell-touch responses”, “fear and nervousness”, “verbal communication”, “non-verbal communication”, “activity level”, “level and reliability of intellectual responses”, and “general impressions”). A total score is obtained by combining all of 15 separate scores, ranging from 15 to 60. A score of 15 is normal. Scores below 30 are considered very mild or non-autistic; 30-36.5 are considered mild to moderate ASD and scores greater than 36.5 are considered severe ASD. The scoring can be provided by either primary care giver or the parents.\nMethod of treatment: ET (2 mg/kg bw per day, 54 mg daily) powder is dissolved in drinking water (200 mL). The individual is treated by ET for three months. ET has no color, no taste when dissolved in water.\nMethod of treatment: ET (2 mg/kg bw per day, 42 mg daily) powder is dissolved in drinking water (200 mL). The individual is treated by ET for three months.\nMethod of treatment: ET (1 mg/kg bw per day, 74 mg daily) powder is dissolved in drinking water (200 mL). The individual is treated by ET for three months."}, "[2]": {"conditions": "Example 1, child, ET 2 mg/kg bw per day, three months, before treatment 1.5"}, "[3]": {"conditions": "Example 1, child, ET 2 mg/kg bw per day, three months, before treatment 2"}, "[4]": {"conditions": "Example 1, child, ET 2 mg/kg bw per day, three months, before treatment 2.5"}, "[5]": {"conditions": "Example 1, child, ET 2 mg/kg bw per day, three months, before treatment 3"}, "[6]": {"conditions": "Example 2, child, ET 2 mg/kg bw per day, three months, before treatment 1"}, "[7]": {"conditions": "Example 2, child, ET 2 mg/kg bw per day, three months, before treatment 2"}, "[8]": {"conditions": "Example 2, child, ET 2 mg/kg bw per day, three months, before treatment 3"}, "[9]": {"conditions": "Example 3, child (ASD, Asperger's Syndrome), ET 2 mg/kg bw per day, three months, before treatment 1"}, "[10]": {"conditions": "Example 3, child (ASD, Asperger's Syndrome), ET 2 mg/kg bw per day, three months, before treatment 1.5"}, "[11]": {"conditions": "Example 3, child (ASD, Asperger's Syndrome), ET 2 mg/kg bw per day, three months, before treatment 2.5"}, "[12]": {"conditions": "Example 4, person, ET 1 mg/kg bw per day, three months, before treatment 1"}, "[13]": {"conditions": "Example 4, person, ET 1 mg/kg bw per day, three months, before treatment 2"}, "[14]": {"conditions": "Example 4, person, ET 1 mg/kg bw per day, three months, before treatment 3"}, "[15]": {"conditions": "Example 4, person, ET 1 mg/kg bw per day, three months, before treatment 4"}}}
{"smiles": "C[N+](C)(C)[C@@H](Cc1c[nH]c(=S)[nH]1)C(=O)O", "note": "[ET, ergothioneine]", "values": [{"measurement": "maximum allowed ET dosage based on the no-observed-adverse-effect level (NOAEL)", "setting": "[1]", "result": 800, "unit": "mg/kg bw per day"}, {"measurement": "CARS-2 Activity level, After treatment", "setting": "ASD individuals; [2]", "result": 1.5}, {"measurement": "CARS-2 Adaptation to change, After treatment", "setting": "ASD individuals; [2]", "result": 1.5}, {"measurement": "CARS-2 Body use, After treatment", "setting": "ASD individuals; [2]", "result": 1.5}, {"measurement": "CARS-2 Fear and nervousness, After treatment", "setting": "ASD individuals; [3]", "result": 1}, {"measurement": "CARS-2 Imitation, After treatment", "setting": "ASD individuals; [3]", "result": 2}, {"measurement": "CARS-2 Listening response, After treatment", "setting": "ASD individuals; [3]", "result": 2}, {"measurement": "CARS-2 Non-verbal communication, After treatment", "setting": "ASD individuals; [3]", "result": 2}, {"measurement": "CARS-2 Object use, After treatment", "setting": "ASD individuals; [3]", "result": 2}, {"measurement": "CARS-2 Taste-smell-touch responses, After treatment", "setting": "ASD individuals; [3]", "result": 2}, {"measurement": "CARS-2 Emotional response, After treatment", "setting": "ASD individuals; [4]", "result": 2}, {"measurement": "CARS-2 Relationship to others, After treatment", "setting": "ASD individuals; [4]", "result": 2}, {"measurement": "CARS-2 Visual response, After treatment", "setting": "ASD individuals; [4]", "result": 2.5}, {"measurement": "CARS-2 General impressions, After treatment", "setting": "ASD individuals; [5]", "result": 2.5}, {"measurement": "CARS-2 Level and consistency of intellectual response, After treatment", "setting": "ASD individuals; [5]", "result": 2}, {"measurement": "CARS-2 Verbal communication, After treatment", "setting": "ASD individuals; [5]", "result": 2}, {"measurement": "CARS-2 Total scores, After treatment", "setting": "ASD individuals; Example 1, child, ET 2 mg/kg bw per day, three months, before treatment 33", "result": 28.5}, {"measurement": "CARS-2 Fear and nervousness, After treatment", "setting": "ASD individuals; [6]", "result": 1}, {"measurement": "CARS-2 Taste-smell-touch responses, After treatment", "setting": "ASD individuals; [6]", "result": 1}, {"measurement": "CARS-2 Adaptation to change, After treatment", "setting": "ASD individuals; [7]", "result": 2}, {"measurement": "CARS-2 Body use, After treatment", "setting": "ASD individuals; [7]", "result": 2}, {"measurement": "CARS-2 Emotional response, After treatment", "setting": "ASD individuals; [7]", "result": 2}, {"measurement": "CARS-2 General impressions, After treatment", "setting": "ASD individuals; [7]", "result": 1.5}, {"measurement": "CARS-2 Imitation, After treatment", "setting": "ASD individuals; [7]", "result": 2}, {"measurement": "CARS-2 Level and consistency of intellectual response, After treatment", "setting": "ASD individuals; [7]", "result": 2}, {"measurement": "CARS-2 Listening response, After treatment", "setting": "ASD individuals; [7]", "result": 1}, {"measurement": "CARS-2 Object use, After treatment", "setting": "ASD individuals; [7]", "result": 2}, {"measurement": "CARS-2 Visual response, After treatment", "setting": "ASD individuals; [7]", "result": 2}, {"measurement": "CARS-2 Activity level, After treatment", "setting": "ASD individuals; [8]", "result": 3}, {"measurement": "CARS-2 Non-verbal communication, After treatment", "setting": "ASD individuals; [8]", "result": 2}, {"measurement": "CARS-2 Relationship to others, After treatment", "setting": "ASD individuals; [8]", "result": 2}, {"measurement": "CARS-2 Verbal communication, After treatment", "setting": "ASD individuals; [8]", "result": 2}, {"measurement": "CARS-2 Total scores, After treatment", "setting": "ASD individuals; Example 2, child, ET 2 mg/kg bw per day, three months, before treatment 32", "result": 27.5}, {"measurement": "CARS-2 Adaptation to change, After treatment", "setting": "ASD individuals; [9]", "result": 1}, {"measurement": "CARS-2 Body use, After treatment", "setting": "ASD individuals; [9]", "result": 1}, {"measurement": "CARS-2 Emotional response, After treatment", "setting": "ASD individuals; [9]", "result": 1}, {"measurement": "CARS-2 Level and consistency of intellectual response, After treatment", "setting": "ASD individuals; [9]", "result": 1}, {"measurement": "CARS-2 Listening response, After treatment", "setting": "ASD individuals; [9]", "result": 1}, {"measurement": "CARS-2 Non-verbal communication, After treatment", "setting": "ASD individuals; [9]", "result": 1}, {"measurement": "CARS-2 Object use, After treatment", "setting": "ASD individuals; [9]", "result": 1}, {"measurement": "CARS-2 Taste-smell-touch responses, After treatment", "setting": "ASD individuals; [9]", "result": 1}, {"measurement": "CARS-2 Verbal communication, After treatment", "setting": "ASD individuals; [9]", "result": 1}, {"measurement": "CARS-2 Fear and nervousness, After treatment", "setting": "ASD individuals; [10]", "result": 1}, {"measurement": "CARS-2 General impressions, After treatment", "setting": "ASD individuals; [10]", "result": 1.5}, {"measurement": "CARS-2 Visual response, After treatment", "setting": "ASD individuals; [10]", "result": 1}, {"measurement": "CARS-2 Relationship to others, After treatment", "setting": "ASD individuals; Example 3, child (ASD, Asperger's Syndrome), ET 2 mg/kg bw per day, three months, before treatment 2", "result": 1}, {"measurement": "CARS-2 Activity level, After treatment", "setting": "ASD individuals; [11]", "result": 3}, {"measurement": "CARS-2 Imitation, After treatment", "setting": "ASD individuals; [11]", "result": 2.5}, {"measurement": "CARS-2 Total scores, After treatment", "setting": "ASD individuals; Example 3, child (ASD, Asperger's Syndrome), ET 2 mg/kg bw per day, three months, before treatment 20.5", "result": 19}, {"measurement": "diagnosis after ET treatment", "setting": "ASD individuals; Example 3, child, ET 2 mg/kg bw per day, three months", "result": "no longer ASD"}, {"measurement": "CARS-2 Adaptation to change, After treatment", "setting": "ASD individuals; [12]", "result": 1}, {"measurement": "CARS-2 Body use, After treatment", "setting": "ASD individuals; [12]", "result": 1}, {"measurement": "CARS-2 Emotional response, After treatment", "setting": "ASD individuals; [12]", "result": 1}, {"measurement": "CARS-2 Fear and nervousness, After treatment", "setting": "ASD individuals; [13]", "result": 1}, {"measurement": "CARS-2 Non-verbal communication, After treatment", "setting": "ASD individuals; [13]", "result": 2}, {"measurement": "CARS-2 Relationship to others, After treatment", "setting": "ASD individuals; [13]", "result": 2}, {"measurement": "CARS-2 Visual response, After treatment", "setting": "ASD individuals; [13]", "result": 2}, {"measurement": "CARS-2 General impressions, After treatment", "setting": "ASD individuals; [14]", "result": 2}, {"measurement": "CARS-2 Imitation, After treatment", "setting": "ASD individuals; [14]", "result": 3}, {"measurement": "CARS-2 Object use, After treatment", "setting": "ASD individuals; [14]", "result": 3}, {"measurement": "CARS-2 Taste-smell-touch responses, After treatment", "setting": "ASD individuals; [14]", "result": 2.5}, {"measurement": "CARS-2 Verbal communication, After treatment", "setting": "ASD individuals; [14]", "result": 2}, {"measurement": "CARS-2 Listening response, After treatment", "setting": "ASD individuals; Example 4, person, ET 1 mg/kg bw per day, three months, before treatment 3.5", "result": 3}, {"measurement": "CARS-2 Activity level, After treatment", "setting": "ASD individuals; [15]", "result": 4}, {"measurement": "CARS-2 Level and consistency of intellectual response, After treatment", "setting": "ASD individuals; [15]", "result": 3}, {"measurement": "CARS-2 Total scores, After treatment", "setting": "ASD individuals; Example 4, person, ET 1 mg/kg bw per day, three months, before treatment 37.5", "result": 31.5}, {"measurement": "average of total CARS-2 score after treatment", "setting": "ASD individuals; examples 1-4, four individuals, decreased from 30.75, T=4.37, P=0.022 by paired student t-test", "result": 26.62}]}
